From US20250230154A1, “COMPOUND HAVING SHP2 PROTEIN DEGRADING ACTIVITY, AND MEDICAL USES THEREOF” (UBIX THERAPEUTICS, INC., priority 2021, published 2025)

Target: T1, SHP2 protein (Homo sapiens, UniProt Q06124)
T1 sequence (Q06124 1-593): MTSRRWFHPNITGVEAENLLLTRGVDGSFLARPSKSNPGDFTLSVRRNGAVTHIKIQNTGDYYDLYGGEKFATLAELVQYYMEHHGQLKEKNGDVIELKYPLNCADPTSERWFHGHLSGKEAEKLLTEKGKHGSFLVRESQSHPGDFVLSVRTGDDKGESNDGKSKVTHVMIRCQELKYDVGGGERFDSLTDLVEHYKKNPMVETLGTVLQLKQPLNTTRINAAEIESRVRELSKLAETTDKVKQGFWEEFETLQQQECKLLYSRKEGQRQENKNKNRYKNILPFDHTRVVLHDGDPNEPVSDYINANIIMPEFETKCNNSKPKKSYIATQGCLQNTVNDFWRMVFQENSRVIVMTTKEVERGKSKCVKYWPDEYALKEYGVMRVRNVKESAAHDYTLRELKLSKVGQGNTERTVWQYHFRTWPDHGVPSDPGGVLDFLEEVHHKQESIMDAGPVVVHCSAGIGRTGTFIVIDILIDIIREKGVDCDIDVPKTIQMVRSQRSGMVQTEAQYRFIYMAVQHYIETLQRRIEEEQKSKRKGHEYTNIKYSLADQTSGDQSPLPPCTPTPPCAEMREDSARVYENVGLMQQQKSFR
Test: Measurement of SHP2 protein degradation in MV-4-11 cells (western blotting)
Type: cell-based
Parameters: endogenous in cells; host or cells: MV-4-11
Conditions: MV-4-11 cells, 24 hours
Procedure: Experimental Example 2: Measurement of SHP2 Protein Degradation in MV-4-11 Cells
MV-4-11 cells were treated with the synthesized Example compound, and the amount of SHP2 protein present in the cells was measured using western blotting detection. The protocol of the experiment conducted using MV-4-11 cells was as follows:
[Culture] MV-4-11 cells resuspended in IMDM MEDIUM (Hyclone, SH30228.01) containing 5% FBS (Hyclone, SV30207.02) and 1% Penicillin-streptomycin (Welgene, LS 202-02) were seeded at a density of 1×10^6/mL/well in a 12-well plate in an amount of 1 ml each.
[Compound treatment] The 12-well plate was treated as follows: Cells were treated with compounds at a final concentration of […] made by serial dilution of 10 mM stock with DMSO in 1/100 increments […]. After 24 hours, cells were harvested. For the negative control group, DMSO diluted 1/100 to the media (3 mL DMSO+297 mL media) was added.
[Harvest] Each well was collected in a 1.5 mL microtube by pipetting with a 1 mL pipette and centrifuged (500 g, 5 min, 4° C.). The supernatant was removed. It was washed with PBS, and then centrifuged again (500 g, 5 min, 4° C.). Thereafter, the supernatant was removed to prepare a pellet.
[Cell Lysis and Sample preparation] Lysis buffer was prepared as follows: […] of RIPA buffer (Biosesang, RC2038-050-00)+0.5 mM PMSF (SIGMA, P7626)+1× Protease/Phosphatase Inhibitor (Cell signaling, 5872S) per well was added and placed on ice for 30 minutes (vortexing at 0 and 30 minutes, respectively). After sonication process (10 seconds pulse, 30 seconds rest, 5 cycles, 70% amplification), centrifugation (15000 g, 15 min, 4° C.) was performed, and then only the supernatant was taken and transferred to a microtube. The sample was diluted ¼ with RIPA buffer in a 96-well plate, and mixed with A:B=50:1 of the BCA Protein Assay Kit (iNtRON, 21071). […] each of the mixture was left at 37° C. for 30 minutes, and cooled for 10 minutes. Then, absorbance was measured at 562 nm with the SYNERGY H1 microplate reader from BioTek. After making a sample by quantifying the protein with the measured value, boiling was performed at 70° C. for 10 minutes. At this time, the sample buffer used was a mixture of NuPAGE or Bolt 4× sample buffer (Invitrogen) and each 10× sample reducing agent according to the gel to be used, and RIPA buffer was used for protein dilution.
[Western blotting detection method] The same amount of sample was loaded on NuPAGE or Bolt Bis-tris 4-12% gradient gel and run (200 V, 35 minutes). It was transferred to 0.2 mm NC membrane with Trans-blot Turbo (BIO-RAD) (1.3 A constant, 25 V limit, 15 minutes). Blocking was performed at room temperature for 1 hour with Skim milk or Intercept Blocking Buffer (LI-COR, 927-60001):0.1% TBST=1:1. Anti-SHPTP2 Mouse (1:500 in 2% BSA/0.2% TBST, size: 70 kDa, Santacruz sc-7384) was incubated overnight at 4° C., and Anti-GAPDH Rabbit (1:2,000 in 2% BSA/0.2% TBST, size: 37 kDa, CST #2118) was incubated at room temperature for 1 hour 30 minutes or 3 hours. It was washed 3 times for 5 minutes each with 0.2% TBST washing buffer. Secondary antibody Anti-Rabbit IgG (1:5,000 in 2% BSA/0.2% TBST, CST), IRDye® 680RD Goat anti-Rabbit IgG Secondary Antibody (1:10,000 in 2% BSA/0.2% TBST, LI-COR 926-68071) were added and incubated for 45 minutes on a rocker at room temperature. It was washed 5 times for 5 minutes each with 0.2% TBST washing buffer and detected with LI-COR's Odyssey. At this time, SHPTP2 was detected using SuperSignal West Pico PLUS Chemiluminescent Substrate, and house-keeping genes were also detected.
In the results of Table 4 below, Compounds 1-7, 13-19, and 21-26 are results in KYSE-520 cells, and the others are results in MV-4-11 cells.

Row | Structure (SMILES) | SHP2 degradation (%) 10 nM | SHP2 degradation (%) 100 nM | SHP2 degradation (%) 1000 nM
1 | Cc1ncsc1-c1ccc(CNC(=O)[C@@H]2C[C@@H](O)CN2C(=O)[C@@H](NC(=O)C2(F)CC2)C(C)(C)C)c(OCCC2CCN(CCC(=O)Nc3cccc(Sc4cnc(N5CCC(C)(CN)CC5)cn4)c3Cl)CC2)c1 [Example 74, (2S,4R)—N-(2-(2-(1-(3-((3-((5-(4-(aminomethyl)-4-methylpiperidin-1-yl)pyrazin-2-yl)thio)-2-chlorophenyl)amino)-3-oxopropyl)piperidin-4-yl)ethoxy)-4-(4-methylthiazol-5-yl)benzyl)-1-((S)-2-(1-fluorocyclopropane-1-carboxamido)-3,3-dimethylbutanoyl)-4-hydroxypyrrolidine-2-carboxamide] | 29.0% | 80.5% | 94.5%
2 | Cc1ncsc1-c1ccc(CNC(=O)[C@@H]2C[C@@H](O)CN2C(=O)[C@@H](NC(=O)C2(F)CC2)C(C)(C)C)c(OCC2CCN(C(=O)CCC(=O)Nc3cccc(Sc4cnc(N5CCC(C)(CN)CC5)cn4)c3Cl)CC2)c1 [Example 44, (2S,4R)—N-(2-((1-(4-((3-((5-(4-(aminomethyl)-4-methylpiperidin-1-yl)pyrazin-2-yl)thio)-2-chlorophenyl)amino)-4-oxobutanoyl)piperidin-4-yl)methoxy)-4-(4-methylthiazol-5-yl)benzyl)-1-((S)-2-(1-fluorocyclopropane-1-carboxamido)-3,3-dimethylbutanoyl)-4-hydroxypyrrolidine-2-carboxamide] | 71.5% | 95% | 95.5%
3 | Cc1ncsc1-c1ccc(CNC(=O)[C@@H]2C[C@@H](O)CN2C(=O)[C@@H](NC(=O)C2(F)CC2)C(C)(C)C)c(OCCN2CCN(c3ccc(C(=O)Nc4cccc(Sc5cnc(N6CCC(C)(CN)CC6)cn5)c4Cl)cn3)CC2)c1 [Example 82, N-(3-((5-(4-(aminomethyl)-4-methylpiperidin-1-yl)pyrazin-2-yl)thio)-2-chlorophenyl)-6-(4-(2-(2-(((2S,4R)-1-((S)-2-(1-fluorocyclopropane-1-carboxamido)-3,3-dimethylbutanoyl)-4-hydroxypyrrolidine-2-carboxamido)methyl)-5-(4-methylthiazol-5-yl)phenoxy)ethyl)piperazin-1-yl)nicotinamide] | 16.2% | 96.2% | –
4 | Cc1ncsc1-c1ccc(CNC(=O)[C@@H]2C[C@@H](O)CN2C(=O)[C@@H](NC(=O)C2(F)CC2)C(C)(C)C)c(OCCCN2CCC(CC(=O)Nc3cccc(Sc4cnc(N5CCC(C)(N)CC5)cn4)c3Cl)CC2)c1 [Example 8, (2S,4R)—N-(2-(3-(4-(2-((3-((5-(4-amino-4-methylpiperidin-1-yl)pyrazin-2-yl)thio)-2-chlorophenyl)amino)-2-oxoethyl)piperidin-1-yl)propoxy)-4-(4-methylthiazol-5-yl)benzyl)-1-((S)-2-(1-fluorocyclopropane-1-carboxamido)-3,3-dimethylbutanoyl)-4-hydroxypyrrolidine-2-carboxamide] | 39.5% | 92.6% | 96.5%
5 | Cc1ncsc1-c1ccc(CNC(=O)[C@@H]2C[C@@H](O)CN2C(=O)[C@@H](NC(=O)C2(F)CC2)C(C)(C)C)c(OC2CC3(CCN(C(=O)CC(=O)Nc4cccc(Sc5cnc(N6CCC(C)(CN)CC6)cn5)c4Cl)CC3)C2)c1 [Example 50, (2S,4R)—N-(2-((7-(3-((3-((5-(4-(aminomethyl)-4-methylpiperidin-1-yl)pyrazin-2-yl)thio)-2-chlorophenyl)amino)-3-oxopropanoyl)-7-azaspiro[3.5]nonan-2-yl)oxy)-4-(4-methylthiazol-5-yl)benzyl)-1-((S)-2-(1-fluorocyclopropane-1-carboxamido)-3,3-dimethylbutanoyl)-4-hydroxypyrrolidine-2-carboxamide] | 91.5% | 98.4% | –
6 | Cc1ncsc1-c1ccc(CNC(=O)[C@@H]2C[C@@H](O)CN2C(=O)[C@@H](NC(=O)C2(F)CC2)C(C)(C)C)c(OCC2CCN(C(=O)CC(=O)Nc3cccc(Sc4cnc(N5CCC(C)(CN)CC5)cn4)c3Cl)CC2)c1 [Example 31, (2S,4R)—N-(2-((1-(3-((3-((5-(4-(aminomethyl)-4-methylpiperidin-1-yl)pyrazin-2-yl)thio)-2-chlorophenyl)amino)-3-oxopropanoyl)piperidin-4-yl)methoxy)-4-(4-methylthiazol-5-yl)benzyl)-1-((S)-2-(1-fluorocyclopropane-1-carboxamido)-3,3-dimethylbutanoyl)-4-hydroxypyrrolidine-2-carboxamide] | 76% | 97% | 97.5%
7 | Cc1ncsc1-c1ccc(CNC(=O)[C@@H]2C[C@@H](O)CN2C(=O)[C@@H](NC(=O)C2(F)CC2)C(C)(C)C)c(OCCCN2CCN(C(=O)CC(=O)Nc3cccc(Sc4cnc(N5CCC(C)(CN)CC5)cn4)c3Cl)CC2)c1 [Example 60, (2S,4R)—N-(2-(3-(4-(3-((3-((5-(4-(aminomethyl)-4-methylpiperidin-1-yl)pyrazin-2-yl)thio)-2-chlorophenyl)amino)-3-oxopropanoyl)piperazin-1-yl)propoxy)-4-(4-methylthiazol-5-yl)benzyl)-1-((S)-2-(1-fluorocyclopropane-1-carboxamido)-3,3-dimethylbutanoyl)-4-hydroxypyrrolidine-2-carboxamide] | 59% | 94% | 95.5%
8 | Cc1ncsc1-c1ccc(CNC(=O)[C@@H]2C[C@@H](O)CN2C(=O)[C@@H](NC(=O)C2(F)CC2)C(C)(C)C)c(OCCN2CCN(C(=O)CC(=O)Nc3cccc(Sc4cnc(N5CCC(C)(CN)CC5)cn4)c3Cl)[C@H](C)C2)c1 [Example 62, (2S,4R)—N-(2-(2-((R)-4-(3-((3-((5-(4-(aminomethyl)-4-methylpiperidin-1-yl)pyrazin-2-yl)thio)-2-chlorophenyl)amino)-3-oxopropanoyl)-3-methylpiperazin-1-yl)ethoxy)-4-(4-methylthiazol-5-yl)benzyl)-1-((S)-2-(1-fluorocyclopropane-1-carboxamido)-3,3-dimethylbutanoyl)-4-hydroxypyrrolidine-2-carboxamide] | 82.5% | 96% | –
